{"source": "patent US6511815B1", "about": "“Method for quantitating competitive binding of molecules to proteins utilizing fluorescence polarization” (priority 1996, dated 2003)", "molecular_target": "T1, Estrogen receptor (Homo sapiens, UniProt P03372)", "T1 construct": "purchased PanVera Corporation, Madison, Wis", "T1 sequence (P03372 whole entry)": "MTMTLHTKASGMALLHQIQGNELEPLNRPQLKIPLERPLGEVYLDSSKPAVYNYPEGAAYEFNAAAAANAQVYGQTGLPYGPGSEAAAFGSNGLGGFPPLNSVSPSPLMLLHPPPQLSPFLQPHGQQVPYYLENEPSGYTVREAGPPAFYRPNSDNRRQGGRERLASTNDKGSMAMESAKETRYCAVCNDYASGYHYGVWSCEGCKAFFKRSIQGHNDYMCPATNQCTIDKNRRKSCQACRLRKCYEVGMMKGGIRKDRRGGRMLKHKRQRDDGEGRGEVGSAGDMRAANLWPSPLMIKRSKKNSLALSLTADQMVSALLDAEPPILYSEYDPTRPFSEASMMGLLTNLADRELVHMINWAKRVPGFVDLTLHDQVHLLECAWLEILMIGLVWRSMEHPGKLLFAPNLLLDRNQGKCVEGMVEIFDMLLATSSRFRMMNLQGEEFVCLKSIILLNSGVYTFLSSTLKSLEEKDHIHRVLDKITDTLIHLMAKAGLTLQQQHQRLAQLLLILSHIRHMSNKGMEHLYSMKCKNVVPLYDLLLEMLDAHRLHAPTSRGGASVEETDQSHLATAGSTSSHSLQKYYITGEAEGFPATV", "experiment": "Competitive fluorescence polarization assay, displacement of fluormone ES1 from ER by environmental compounds", "type": "binding", "conditions": "1 nM ES1, 10 nM ER, 2.5 hours at room temperature, 360/485 nm", "experimental": "Many compounds found in the environment are know to act as natural estrogens. […] The two pesticides were tested individually and together. […] Estrogen receptor was added to each tube at a final concentration of 10 nM. The mixtures were allowed to equilibrate for 2.5 hours at room temperature and the polarization values were read 360/485 nm excitation/emission."}
{"smiles": "ClC1=C(Cl)C2(Cl)C3C(Cl)C(Cl)CC3C1(Cl)C2(Cl)Cl", "note": "(stereo not shown) [chlordane]", "values": [{"measurement": "ability to displace fluormone ES1 binding to ER", "result": "effectively competed the fluormone ES1 off the estrogen receptor"}]}
